Measured values from patent US20210379094A1, “METHOD FOR REDUCING DRUG-INDUCED NEPHROTOXICITY” (Yissum Research Development Company of the Hebrew …, priority 2019, published 2021).
Where “and” joins values, the source holds several entries; their conditions need not be identical. Equal entries are not always repeated.

Key:
Format in all cases: cell-based, human
[1] = system: HK-2 proximal tubule cells; assay: Glucose accumulation assay (2-NDBG); details: for 2-NBDG fluorescence: concentrations a thousand-fold under the threshold of cellular damage
Description: To monitor glucose uptake in cells, a fluorescent analog of glucose 2-(N-(7-Nitrobenz-2-oxa-1,3-diazol-4-yl) Amino)-2-Deoxyglucose (2-NDBG), (Invitrogen, CA, USA) was used. After overnight drug exposure, the medium was removed and replaced with Dulbecco's Phosphate Buffered Saline (Sigma, USA) with 17 mM and 6 mM of 2-NDBG to match glucose concentration of HK-2 and RPTEC culture medium respectively, incubated for 1 hour at 37° C., 5% CO2 before imaging. 2-NDBG is taken up in mammalian cells by GLUT-2, if its activity or shuttling is disturbed, 2-NDBG will accumulate in the cells, showing higher green intensity.

HK-2 organoids [2] = assay: Real-time oxygen uptake / time to onset in perfused organoid bioreactor; details: for Oxygen uptake drop: after 33 hours continuous perfusion, 12.5 μM Cyclosporine A, 32 μM Cisplatin, 32 mM Gentamicin
Description: Polydimethylsiloxane (PDMS) microwell inserts were sterilized with 70% EtOH and 30-min exposure to UV light prior to cell seeding. Kidney cells were trypsinized, counted, and centrifuged at 300×g for 5 min at 4° C. […] Then, 1.35 μl of Matrigel® suspension containing cells and oxygen-sensing beads was seeded in each well using […] M P10M (Gilson, UK). The inoculated microwell insert was then incubated for 30 min at 37° C. to polymerize the gel. Following polymerization, the insert was immersed in 3 ml of cell culture medium and incubated overnight at 37° C. prior to being sealed in the bioreactor housing. Bioreactors were then placed in a climate control chamber on an IX81 fluorescence microscope (Olympus, Japan). Bioreactors were continuously perfused with cell culture medium noted above supplemented with 10 mM HEPES and 1% DMSO at a flow rate of 5 μL/min. Drug induction started upon metabolic stabilization. Stabilization was assessed by daily measurements of oxygen and metabolites.
Real-time oxygen measurements were performed optically using on-chip lifetime-based luminescence quenching (LBLQ). […] Oxygen acts as a quencher, leading to a decrease in decay time and signal intensity with increasing concentration. We chose to measure decay time, rather than signal intensity, as it is not sensitive to changes in probe concentration or excitation intensity over the course of the experiment. […] To accurately measure decay time, we chose phase modulation in which sinusoidal amplitude-modulated light is shifted in phase due to oxygen quenching. […] Measurements were carried out by averaging five consecutive 4-s exposures. Measurements were taken every 15 min.
Bioreactors were perfused with different concentrations of compounds dissolved in culture medium. […] TC50 concentrations were determined using MATLAB by sigmoidal curve fitting. […] Time to onset was analyzed by MATLAB based on LPF and trend assessment.

HK-2 organoids [3] = assay: Metabolic flux analysis (glucose, lactate, glutamine, oxygen) of perfused organoids; details: for ATP production drop / Lipogenesis increase / glycolysis drop: 31 hours exposure to sub-toxic concentration (12.5 μM Cyclosporine A, 32 μM Cisplatin, 32 mM Gentamicin)
Description: Amperometric glucose and lactate sensors were purchased from Innovative Sensor Technology (IST, Switzerland). […] Both sensors produce H2O2 in amounts proportional to the measured metabolite, which is detected with platinum electrodes under polarized condition. […] Measurements were carried out and calibrated to sensitivity decrease by on-chip potentiostat (IST, Switzerland). Glucose uptake, oxygen uptake, and lactate production rates were measured by calculating the change in metabolite concentration between the bioreactor in- and outflow as a function of perfusion rate and cell number. Metabolic rates were calculated assuming negligible contribution to oxygen uptake by fatty acid oxidation and enzymatic activity. […] Based on these assumptions, oxidative phosphorylation flux was calculated by dividing the oxygen uptake rate by six. It was estimated that 32 ATP molecules were generated by complete oxidation of one molecule of glucose. Glycolysis flux was calculated by dividing lactate production rate by two, with maximal rate defined by glucose uptake rate minus the oxidative phosphorylation flux. ATP production in glycolysis was estimated to be two molecules per molecule of glucose. It was assumed that any glucose left over was directed toward lipogenesis, because the contribution of pentose phosphate pathway in non-proliferating cells is minor. […] ATP production in glutaminolysis was estimated to be three molecules per molecule of lactate generated.

HK-2 [4] = assay: Reduction of toxicity (rescue) experiment with glucose transport inhibitors, LIVE/DEAD viability; details: for cell viability / cell death: cultures treated with nephrotoxic drug plus inhibitor vs drug alone
Description: (§1) Empagliflozin (5 μM) a potent SGLT2 inhibitor, phloretin (1 mM) inhibits the apicobasal shuttling of the GLUT2, phlorizin (200 μM) is a mild inhibitor of SGLT1 and SGLT2. When all three inhibitors were used together, the mix was referred to as a cocktail. All experiments were performed on a 96 well plate, in triplicates with controls with no drugs, or inhibitors alone. First, cells were incubated for 1 hour with inhibitors alone and then drugs were added with inhibitors for 24 hours for LIVE DEAD assay or 48 hours for Lipid accumulation (LipidTox Assay). Cell viability was determined using LIVE/DEAD Cytotoxicity kit (Molecular Probes, USA) according to manufacturer directions. Briefly, cultures were incubated for 30 min with 2 μM calcein AM and 4 μM ethidium homodimer-1. Live cells were positive for green fluorescence due to hydrolysis of the acetoxymethyl ester group by intracellular esterases. Dead cells were positive for red fluorescence due to ethidium homodimer-1 binding intracellular DNA, possible in […]. Cellular viability was expressed as live over dead ratio and normalized based on negative (DMSO/DDW/PBS) controls. Fluorescence micrographs were analyzed for total fluorescence using ImageJ for 9 repeats for each sample. Error bars indicate ±SEM.
(§2) After staining, plates were mounted on the fluorescent microscope for quantification. Rescue was achieved when significant percentage of live cells and/or a reduced amounts of dead cells was observed as compared with cells treated with the drug only.

HK-2 [5] = assay: Reduction of toxicity (rescue) experiment with glucose transport inhibitors, lipid accumulation (LipidTox); details: for lipotoxicity: cultures treated with the three nephrotoxic compounds
Description: Quantification of lipid accumulation was performed using HCS LipidTOX™ Phospholipidosis and Steatosis Detection Kit (ThermoFisher). Briefly, HK-2 and RPTEC cells were incubated with different concentrations of compounds dissolved in culture medium and 1× Phospholipidosis Detection Reagent for 48 h, subsequently fixed in 4% PFA. Cells were then stained with 1× Green LipidTOX™ for neutral lipids for 45 min and counterstained with 1 μg/mL Hoechst 33258. Staining intensity was normalized to number of Hoechst 33258 positive nuclei.
as §1, §2

[6] = organoids under continuous perfusion

Compound | 2-NBDG fluorescence [1] | Oxygen uptake drop (HK-2 organoids [2]) | ATP production drop (HK-2 organoids [3]) | Lipogenesis increase (HK-2 organoids [3]) | glycolysis drop (HK-2 organoids [3]) | cell viability / cell death (HK-2 [4]) | lipotoxicity (HK-2 [5]) | further results
Gentamicin | doubles | 10% | 29% | 438% | 65% | – | – | Relative 2-NDBG accumulation, increase in glucose content ([1]; HK2 cells, sub-toxic 15 h exposure): 2 fold; oxygen response upon perfusion (HK-2 organoids [2]; [6]): acute jump in oxygen uptake within an hour after exposure; viability at sub-toxic concentration (HK-2 organoids [2]; sub-toxic concentration used for flux analysis): > 95%; lactate over glucose ratio drop (HK-2 organoids [3]; 32 mM Gentamicin, after 10 h exposure): 85%; glucose uptake increase (HK-2 organoids [3]; after 31 hours): +196%; lactate release decrease (HK-2 organoids [3]; after 31 hours): −65.2%; Glutamine uptake change (HK-2 organoids [3]; at 31 hours): +14.1%; Glutamine uptake change (HK-2 organoids [3]; at approximately 16 hours): +76%; shift of organoid metabolism (HK-2 organoids [3]; bioreactor studies): significantly shift proximal tubular organoid metabolism towards lipogenesis
O=C(CCc1ccc(O)cc1)c1c(O)cc(O)cc1O [Phloretin] | – | – | – | – | – | restores cell viability | significantly alleviates lipotoxicity | –
N.N.[Cl][Pt][Cl] [Cisplatin] | doubles | 36% | 53% | 57.6% and 57% | 98.4% and 98% | – | – | Time to onset (TTO) of response (HK-2 organoids [2]; HK-2 organoids, increasing concentrations, dose-dependent decrease): 13 to 22 h; time of induced damage following exposure (HK-2 organoids [2]; [6]): at least 14 hours; Overall glutamine uptake (HK-2 organoids [3]; during exposure): remained constant
OC[C@H]1O[C@@H](c2ccc(Cl)c(Cc3ccc(O[C@H]4CCOC4)cc3)c2)[C@H](O)[C@@H](O)[C@@H]1O [Empagliflozin] | – | – | – | – | – | restores cell viability | significantly alleviates lipotoxicity | –
O=C(CCc1ccc(O)cc1)c1c(O)cc(O)cc1O[C@@H]1O[C@H](CO)[C@@H](O)[C@H](O)[C@H]1O [Phlorizin] | – | – | – | – | – | restores cell viability | significantly alleviates lipotoxicity | increase in cell viability (HK-2 [4]; CsA treated cultures, compared to cells treated with CsA alone): 2 fold; decrease in phospholipids content (HK-2 [5]; CsA treated cultures, compared to CsA alone): 2 fold
